# Test results taken from patent publication US8686178B2, “Derivative of 18β-glycyrrhetinic acid apt to suppress cancer cells” (Kaohsiung Medical University, priority 2011, dated 2014).
# Tested on: p-p53 (Ser15)
# Assay: Trial (G): expression of p53 / p-p53 by Western blot
# Format: cell-based, human
# Settings: 10, 25, 50 μM, 24 hours, NTUB1
# Description: In trial (G), expression of p53 is monitored via Western blot analysis in accordance with a journal article published by Son et al., at 2010 in Toxicol. Appl. Pharmacol., in which overproduction ROS induced p53 suppression is observed.
# Referring to TABLE 7, the NTUB1 cells at a density of 8×10^5 cells/ml are prepared and assigned into 9 groups, including G1-1 to G1-5 and G2-1 to G2-4, to incubate in various medium for 24 hours, followed by harvesting in trypsinization, resuspending in PBS till at a suitable density and collecting the NTUB1 cells of each group respectively.
# Next, the NTUB1 cells of each group are further diluted with equal volume of 2× sample buffer, boiled for 10 minutes twice to denature protein therein, and analyzed by SDS-PAGE. After that, proteins on SDS-PAGE datum are transferred to nitrocellulose membranes (Millipore, Billerica, Mass., USA) using a semi-dry blotter, followed by blocking with 5% (w/v) skimmed milk in TBST buffer (100 mM Tris-HCl (pH 7.5), 150 mM NaCl and 0.1% Tween-20), incubating with specific antibodies [including antibodies specific for b-acctin (NB600-501), p-p53 (Ser15) (9284) and p53 (DO1)]. at 4° C. overnight, washing with TBST buffer again and incubated with secondary antibody at room temperature. Finally, western data of each group are visualized on Fuji SuperRX film. […]
compound,measurement,value
"C=C(C)[C@@H]1CC[C@]2(C)[C@H](C(=O)C=C3[C@@H]4C[C@@](C)(C(=O)NC(C)C)CC[C@]4(C)CC[C@]32C)[C@@]1(C)CCC(=O)NC(C)C [Compound 25, 3,4-seco-11-oxo-18β-olean-4(23),12-dien-3,30-diisopropyl carbamate]","levels of p-p53 (Western blot, FIGS. 9, 10)",increase levels of p-p53 in a dose-dependent manner
